US20210317090A1, “AMINO ACID DEPLETION AGENTS AS ANTIPROLIFERATIVE AGENTS” (University of Central Florida Research Foundation, Inc., priority 2018, published 2021)

Columns and labels:
L3.6pl cells [1] = test: Intracellular polyamine and Ant-44 levels (N-dansylation, HPLC) in L3.6pl cells; assay type: cell-based, human; settings: 3.3 μM compound 10 (SR isomer), FIG. 10I
L3.6pl cells [2] = test: Analytes in supernatant of L3.6pl cells (LCMS); assay type: cell-based, human; settings: 72 h
Description: One way to affect both spermidine and spermine pools is to decrease methionine supply, which in turn would inhibit the formation of the decarboxylated S-adenosylmethionine needed to provide the aminopropyl fragment required for spermidine and spermine synthesis. Since methionine, leucine and phenylalanine all use the LAT1/SLC3A2 transporter to enter cells, it was hypothesized that 10 was inhibiting LAT-1 mediated amino acid import. To test this hypothesis, the development of various embodiments involved measuring the amino acid concentrations in the supernatants of cells incubated with compound 10 at 2 and 5 μM for 72 h.
(§1) This example illustrates aspects according to various embodiments pertaining to a 72 h experiment with Compound 10 in L3.6pl cells. Ten milliliters of a cell suspension containing L3.6pl human pancreatic cancer cells (50,000 cells/mL) and aminoguanidine ([…]) were placed in treated plastic Petri dishes (d=9 cm) and incubated overnight at 37° C. After 24 h, the cells were dosed with compound 10 at 2 μM, 5 μM, or 7 μM. (Note: Stock solutions of 10 at 2, 5, and 7 mM were dissolved in phosphate buffered saline (PBS) and were filtered through a 0.2 μm filter prior to use. The experiments were maintained with a total volume of 10.01 mL where 10 mL of the cell suspension was placed in a plastic dish and each compound or the equivalent PBS volume was added to make up the total volume 10.01 mL for each dish. For example, for the control experiment PBS (10 μL) was added to make up the total volume (10 mL+10 μL=10.01 mL). After 72 h incubation, the cells were collected first by pipetting off the supernatant containing floating dead cells from the culture dish as well as media and placing them into 15 mL tubes. The supernatant containing floating cells was centrifuged (4 min at 1,000 rpm). The cell-free supernatant (supernatant #1) was collected into a new 15 mL tube and quantified (˜8.6 mL) and was then stored frozen and was later quantified by LCMS to investigate the media composition of particular polyamine and amino acid analytes. The attached cells on the dish were washed with PBS (5 mL). The PBS wash was removed by suction and additional PBS (2 mL) was added and again suctioned off to provide twice-washed cells still adhered to the dish. Trypsin (2 mL) was then added to each dish and incubated (3-5 min) until all the cells were detached. Fresh media (8 mL) was added to quench the trypsin. The cell solutions were pipetted into separate 15 mL tubes and centrifuged (4 min at 1,000 rpm). The resulting supernatant was removed to provide a pellet. The pellet was suspended in PBS (10 mL) and was counted by a hemocytometer to provide cell counts for each experimental condition. The pellet was then centrifuged (4 min at 1,000 rpm) and the supernatant removed and the remaining pellet was quantified via protein and polyamine analysis.
This example illustrates aspects according to various embodiments pertaining to an LCMS Analysis. The respective supernatant (10 μL) was injected on a Thermo HPLC system equipped with PAL CTC plate sampler (96-well plate), Dionex Ultimate 3000 binary pump (flow rate at 0.25 mL/min), Dionex Ultimate 3000 thermostatted column compartment (temperature at 40° C.), Thermo Endura Mass Spectrometer (ESI source), using Thermo Scientific Accucore C18 (2.6 μm, 2.1×50 mm, 100 Å) column under a gradient of acetonitrile w/0.1% heptafluorobutyric acid (HFBA) in H2O w/0.1% HFBA from 2% at minute 0 to 60% at minute 5.0, to 99% at minute 6.5 held until minute 7.5 and then reduced back to 2% until minute 10 to re-equilibrate the column for the next injection. The peak area was measured and analyte amounts were calculated referring to analyte calibration curves. Analyte levels were adjusted with internal standard concentration for extraction efficiency. Peak height measurements were conducted referring to values obtained for standards of known concentrations. […]

CHO-MG cells = test: Rescue by exogenous native polyamines in CHO-MG cells; assay type: cell-based, Chinese hamster; settings: toxic concentration of compound 10 (results not shown)
L3.6pl cells [3] = test: Intracellular leucine and methionine after cell lysis (LCMS); assay type: cell-based, human; settings: 72 h
Description: as §1
To each cell pellet, a perchloric acid (100 μL) buffer solution (0.2M HClO4/1 M NaCl) and 0.9% NaCl (50 μL) was added. The samples were sonicated via sonic dismembranator in small bursts until samples were homogenized and cloudy. Additional perchloric acid (50 μL) buffer solution was added. The homogenized samples were then vortexed and centrifuged (10 min at 4,000 rpm). The supernatants of the respective samples (supernatant #2) were removed and quantified by calibrated pipet (˜190 μL volume). Note: 100 μL of supernatant #2 was placed into a micro-centrifuge tube for polyamine analysis by the N-dansylation HPLC protocol and the rest was placed into a different micro-centrifuge tube for analysis by LCMS of specific amino acid analytes. The respective supernatants were stored in the freezer for polyamine and LCMS quantification and the remaining protein pellet was used for the protein analysis. The protein pellet was dissolved in aq. NaOH (1 mM, 200 μL). The sample stood at room temperature with occasional vortex (45 min) and was then centrifuged (15 min at 15,000 rpm). The supernatant was collected and dissolved protein was quantified using the commercial Pierce BCA kit according to manufacturer's protocol.
This example illustrates aspects according to various embodiments pertaining to an LCMS Analysis. […]

## CC(C)CCN1CCN(C(CNCc2ccccc2)CC2CCCCC2)CC1CC(C)C.Cl.Cl.Cl (centres unmarked) [Compound 10, Benzyl-{3-cyclohexyl-2-[3-isobutyl-4-(3-methyl-butyl)-piperazin-1-yl]-propyl}-amine trihydrochloride salt]
L3.6pl cells [1]
  intracellular levels of polyamine metabolites: lower levels of polyamines and N-acetylspermine
L3.6pl cells [2]; 2 μM
  Supernatant level Acetyl spermidine: 1649 ± 18 pmoles/mg protein
  Supernatant level Acetyl spermine: 49 ± 10 pmoles/mg protein
  Supernatant level Agmatine: 297 ± 163 pmoles/mg protein
  Supernatant level Arginine: 18396 ± 70 pmoles/mg protein
  Supernatant level Glutamic acid: 20231 ± 649 pmoles/mg protein
  Supernatant level Leucine: 15055 ± 1043 pmoles/mg protein
  Supernatant level Methionine: 17686 ± 2432 pmoles/mg protein
  Supernatant level Ornithine: 9249 ± 306 pmoles/mg protein
  Supernatant level Phenylalanine: 11954 ± 828 pmoles/mg protein
  Supernatant level Putrescine: 938 ± 70 pmoles/mg protein
  Supernatant level Spermidine: 131 ± 26 pmoles/mg protein
  Supernatant level Spermine: 2532 ± 406 pmoles/mg protein
L3.6pl cells [2]; 5 μM
  Supernatant level Acetyl spermidine: 1706 ± 29 pmoles/mg protein
  Supernatant level Acetyl spermine: 36 ± 4 pmoles/mg protein
  Supernatant level Agmatine: 485 ± 176 pmoles/mg protein
  Supernatant level Arginine: 43243 ± 2047 pmoles/mg protein
  Supernatant level Glutamic acid: 34033 ± 540 pmoles/mg protein
  Supernatant level Leucine: 202092 ± 23817 pmoles/mg protein
  Supernatant level Methionine: 64036 ± 5454 pmoles/mg protein
  Supernatant level Ornithine: 15951 ± 118 pmoles/mg protein
  Supernatant level Phenylalanine: 160462 ± 18910 pmoles/mg protein
  Supernatant level Putrescine: 2224 ± 98 pmoles/mg protein
  Supernatant level Spermidine: 167 ± 32 pmoles/mg protein
  Supernatant level Spermine: 2690 ± 889 pmoles/mg protein
CHO-MG cells
  rescue of treated cells by native polyamines: unable to rescue
L3.6pl cells [3]; 2 μM
  Intracellular level Leucine: 152 ± 8 pmol/mg protein
  Intracellular level Methionine: 226 ± 21 pmol/mg protein
L3.6pl cells [3]; 5 μM
  Intracellular level Leucine: 94 ± 3 pmol/mg protein
  Intracellular level Methionine: 41 ± 23 pmol/mg protein
L3.6pl cells [3]; 7 μM
  Intracellular level Leucine: 77 ± 1 pmol/mg protein
  Intracellular level Methionine: Not detected
